In the kinase profiling compilation of Christmann-Franck et al. (2016):

What was measured:
Assay in all cases: KINOMEscan competition binding
Conditions in all cases: compound 10.0 µM
AAK1 (human) = AAK1 (human) (UniProt Q2M2I8)
ACVRL1 (human) = ACVRL1 (human) (UniProt P37023)
AURKC (human) = AURKC (human) (UniProt Q9UQB9)
CAMK2A (human) = CAMK2A (human) (UniProt Q9UQM7)
CAMK2D (human) = CAMK2D (human) (UniProt Q13557)
CDC42BPA (human) = CDC42BPA (human) (UniProt Q5VT25)
CDK18 (human) = CDK18 (human) (UniProt Q07002)
Sequence of CDK18 (human) (Q07002 whole entry, looked up): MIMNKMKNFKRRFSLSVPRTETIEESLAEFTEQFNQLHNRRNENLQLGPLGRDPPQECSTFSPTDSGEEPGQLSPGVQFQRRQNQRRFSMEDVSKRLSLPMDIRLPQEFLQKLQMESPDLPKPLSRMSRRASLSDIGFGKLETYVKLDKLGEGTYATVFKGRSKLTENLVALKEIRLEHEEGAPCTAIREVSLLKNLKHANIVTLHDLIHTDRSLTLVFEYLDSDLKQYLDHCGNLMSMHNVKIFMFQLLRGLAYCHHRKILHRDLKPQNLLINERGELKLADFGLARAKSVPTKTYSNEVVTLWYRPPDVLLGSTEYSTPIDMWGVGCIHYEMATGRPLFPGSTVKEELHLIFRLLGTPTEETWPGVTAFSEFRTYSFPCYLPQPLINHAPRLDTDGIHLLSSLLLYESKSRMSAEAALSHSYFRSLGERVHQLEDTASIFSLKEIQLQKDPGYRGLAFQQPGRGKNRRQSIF

CDK8 (human) = CDK8 (human) (UniProt P49336)
DDR2 (human) = DDR2 (human) (UniProt Q16832)
DYRK1B (human) = DYRK1B (human) (UniProt Q9Y463)
EPHB1 (human) = EPHB1 (human) (UniProt P54762)
[1] = system: FLT3 (human), P36888 [ITD]
FRK (human) = FRK (human) (UniProt P42685)
FYN (human) = FYN (human) (UniProt P06241)
GSK3B (human) = GSK3B (human) (UniProt P49841)
IKBKB (human) = IKBKB (human) (UniProt O14920)
MAP2K4 (human) = MAP2K4 (human) (UniProt P45985)
MAP4K1 (human) = MAP4K1 (human) (UniProt Q92918)
MAP4K3 (human) = MAP4K3 (human) (UniProt Q8IVH8)
MAPK13 (human) = MAPK13 (human) (UniProt O15264)
Sequence of MAPK13 (human) (O15264 whole entry, looked up): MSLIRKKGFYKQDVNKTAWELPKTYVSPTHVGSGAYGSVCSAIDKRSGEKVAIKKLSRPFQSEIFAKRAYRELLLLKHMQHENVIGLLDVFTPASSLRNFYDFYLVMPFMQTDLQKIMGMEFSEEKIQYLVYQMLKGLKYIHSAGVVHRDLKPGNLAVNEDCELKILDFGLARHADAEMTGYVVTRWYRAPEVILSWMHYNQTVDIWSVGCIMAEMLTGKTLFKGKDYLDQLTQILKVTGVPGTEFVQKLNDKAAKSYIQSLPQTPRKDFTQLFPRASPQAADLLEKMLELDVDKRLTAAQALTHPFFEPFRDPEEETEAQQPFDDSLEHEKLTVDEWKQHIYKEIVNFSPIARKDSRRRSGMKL

MAPK14 (human) = MAPK14 (human) (UniProt Q16539)
MAPK3 (human) = MAPK3 (human) (UniProt P27361)
Sequence of MAPK3 (human) (P27361 whole entry, looked up): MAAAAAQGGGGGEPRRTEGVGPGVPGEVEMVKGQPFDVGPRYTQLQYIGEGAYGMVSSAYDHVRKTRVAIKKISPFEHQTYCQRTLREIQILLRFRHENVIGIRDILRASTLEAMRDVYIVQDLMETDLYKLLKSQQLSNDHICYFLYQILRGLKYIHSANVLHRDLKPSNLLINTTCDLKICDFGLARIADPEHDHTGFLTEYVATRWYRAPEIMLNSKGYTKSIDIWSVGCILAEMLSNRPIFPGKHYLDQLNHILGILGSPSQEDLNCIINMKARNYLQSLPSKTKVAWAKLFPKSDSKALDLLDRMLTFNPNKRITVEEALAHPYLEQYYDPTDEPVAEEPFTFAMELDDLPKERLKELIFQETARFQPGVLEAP

MARK1 (human) = MARK1 (human) (UniProt Q9P0L2)
MARK4 (human) = MARK4 (human) (UniProt Q96L34)
MKNK1 (human) = MKNK1 (human) (UniProt Q9BUB5)
Sequence of MKNK1 (human) (Q9BUB5 whole entry, looked up): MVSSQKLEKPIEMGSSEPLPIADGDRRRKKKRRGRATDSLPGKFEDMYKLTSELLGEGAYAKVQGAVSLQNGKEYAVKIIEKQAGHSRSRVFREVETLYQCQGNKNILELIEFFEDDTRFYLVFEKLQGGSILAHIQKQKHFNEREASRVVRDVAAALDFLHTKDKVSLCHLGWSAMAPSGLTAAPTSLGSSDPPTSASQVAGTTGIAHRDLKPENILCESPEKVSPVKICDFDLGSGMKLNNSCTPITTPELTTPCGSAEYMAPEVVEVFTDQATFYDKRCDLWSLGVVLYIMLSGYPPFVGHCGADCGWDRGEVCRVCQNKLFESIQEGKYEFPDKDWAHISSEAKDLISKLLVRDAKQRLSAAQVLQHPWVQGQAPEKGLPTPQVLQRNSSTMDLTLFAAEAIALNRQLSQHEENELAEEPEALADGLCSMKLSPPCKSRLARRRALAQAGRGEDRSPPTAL

NEK2 (human) = NEK2 (human) (UniProt P51955)
NTRK2 (human) = NTRK2 (human) (UniProt Q16620)
PAK4 (human) = PAK4 (human) (UniProt O96013)
Sequence of PAK4 (human) (O96013 whole entry, looked up): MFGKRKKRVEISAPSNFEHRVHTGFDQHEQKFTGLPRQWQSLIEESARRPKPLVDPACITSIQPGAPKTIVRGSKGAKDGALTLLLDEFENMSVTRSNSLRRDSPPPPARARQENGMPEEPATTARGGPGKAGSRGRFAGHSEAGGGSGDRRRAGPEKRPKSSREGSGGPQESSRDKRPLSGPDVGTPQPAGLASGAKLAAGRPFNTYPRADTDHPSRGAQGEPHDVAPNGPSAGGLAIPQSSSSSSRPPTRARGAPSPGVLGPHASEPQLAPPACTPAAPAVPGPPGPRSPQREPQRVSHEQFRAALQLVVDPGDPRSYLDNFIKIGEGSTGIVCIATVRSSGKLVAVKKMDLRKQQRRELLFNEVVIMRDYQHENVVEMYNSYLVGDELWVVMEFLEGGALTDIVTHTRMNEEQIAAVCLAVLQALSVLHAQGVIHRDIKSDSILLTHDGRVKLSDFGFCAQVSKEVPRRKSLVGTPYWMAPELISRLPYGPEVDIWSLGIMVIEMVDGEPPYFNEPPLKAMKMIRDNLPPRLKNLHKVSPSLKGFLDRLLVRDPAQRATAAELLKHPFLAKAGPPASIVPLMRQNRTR

PIM2 (human) = PIM2 (human) (UniProt Q9P1W9)
Sequence of PIM2 (human) (Q9P1W9 whole entry, looked up): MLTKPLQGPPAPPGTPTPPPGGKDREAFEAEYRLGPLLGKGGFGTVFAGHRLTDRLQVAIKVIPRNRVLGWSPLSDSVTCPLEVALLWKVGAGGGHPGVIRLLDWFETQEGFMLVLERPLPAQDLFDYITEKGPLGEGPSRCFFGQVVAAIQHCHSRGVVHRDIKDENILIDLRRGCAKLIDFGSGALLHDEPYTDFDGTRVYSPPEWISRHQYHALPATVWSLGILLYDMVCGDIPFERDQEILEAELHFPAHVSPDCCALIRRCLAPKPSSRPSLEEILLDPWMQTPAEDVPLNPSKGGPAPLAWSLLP

RAF1 (human) = RAF1 (human) (UniProt P04049)
RPS6KA4 KD2 (human) = RPS6KA4 KD2 (human) (UniProt O75676)
RPS6KA5 KD1 (human) = RPS6KA5 KD1 (human) (UniProt O75582)
Sequence of RPS6KA5 KD1 (human) (O75582 whole entry, looked up): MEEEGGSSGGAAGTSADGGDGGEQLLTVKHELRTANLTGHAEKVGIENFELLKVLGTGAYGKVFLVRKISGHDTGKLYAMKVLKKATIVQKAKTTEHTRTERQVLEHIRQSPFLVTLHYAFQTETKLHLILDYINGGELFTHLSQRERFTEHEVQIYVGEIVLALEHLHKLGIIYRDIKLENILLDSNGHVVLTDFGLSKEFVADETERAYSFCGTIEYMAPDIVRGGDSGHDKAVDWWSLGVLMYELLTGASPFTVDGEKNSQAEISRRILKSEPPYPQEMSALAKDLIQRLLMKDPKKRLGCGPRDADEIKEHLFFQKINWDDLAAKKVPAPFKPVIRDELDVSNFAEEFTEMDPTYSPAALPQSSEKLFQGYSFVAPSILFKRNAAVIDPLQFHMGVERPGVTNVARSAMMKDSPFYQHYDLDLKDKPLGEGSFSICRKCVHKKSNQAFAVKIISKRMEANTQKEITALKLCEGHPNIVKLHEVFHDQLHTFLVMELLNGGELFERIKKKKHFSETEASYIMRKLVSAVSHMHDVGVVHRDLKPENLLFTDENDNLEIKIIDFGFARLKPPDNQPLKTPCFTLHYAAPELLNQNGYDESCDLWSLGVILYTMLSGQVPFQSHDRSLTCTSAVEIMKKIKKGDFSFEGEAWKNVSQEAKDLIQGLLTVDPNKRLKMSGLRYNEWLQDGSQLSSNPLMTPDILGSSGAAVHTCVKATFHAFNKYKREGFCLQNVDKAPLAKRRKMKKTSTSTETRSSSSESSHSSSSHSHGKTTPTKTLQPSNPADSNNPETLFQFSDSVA

SIK1 (human) = SIK1 (human) (UniProt P57059)
Sequence of SIK1 (human) (P57059 whole entry, looked up): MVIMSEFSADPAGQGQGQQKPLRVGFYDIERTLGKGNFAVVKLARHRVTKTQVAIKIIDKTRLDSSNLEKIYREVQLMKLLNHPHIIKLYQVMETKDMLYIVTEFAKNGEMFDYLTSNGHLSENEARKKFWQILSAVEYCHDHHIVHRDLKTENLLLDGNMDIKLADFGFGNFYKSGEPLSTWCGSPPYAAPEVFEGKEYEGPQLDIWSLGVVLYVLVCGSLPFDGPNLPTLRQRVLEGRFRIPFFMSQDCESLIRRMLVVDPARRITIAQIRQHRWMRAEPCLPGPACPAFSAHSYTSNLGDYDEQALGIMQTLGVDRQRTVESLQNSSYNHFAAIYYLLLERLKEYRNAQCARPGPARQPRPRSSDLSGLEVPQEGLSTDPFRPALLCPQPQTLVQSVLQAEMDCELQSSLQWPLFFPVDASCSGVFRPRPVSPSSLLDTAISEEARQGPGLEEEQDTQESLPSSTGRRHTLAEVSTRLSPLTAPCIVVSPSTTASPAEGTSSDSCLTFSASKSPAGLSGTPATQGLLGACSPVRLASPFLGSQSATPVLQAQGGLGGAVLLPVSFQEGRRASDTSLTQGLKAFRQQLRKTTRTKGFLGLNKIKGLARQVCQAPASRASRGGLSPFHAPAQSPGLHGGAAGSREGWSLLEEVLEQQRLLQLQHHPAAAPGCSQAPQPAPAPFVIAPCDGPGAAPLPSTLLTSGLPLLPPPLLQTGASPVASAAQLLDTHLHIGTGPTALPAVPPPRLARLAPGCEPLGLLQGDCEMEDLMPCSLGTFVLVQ

STK11 (human) = STK11 (human) (UniProt Q15831)
STK32C (human) = STK32C (human) (UniProt Q86UX6)
STK36 (human) = STK36 (human) (UniProt Q9NRP7)
SYK (human) = SYK (human) (UniProt P43405)
TLK1 (human) = TLK1 (human) (UniProt Q9UKI8)
TTK (human) = TTK (human) (UniProt P33981)
WEE1 (human) = WEE1 (human) (UniProt P30291)
Sequence of WEE1 (human) (P30291 whole entry, looked up): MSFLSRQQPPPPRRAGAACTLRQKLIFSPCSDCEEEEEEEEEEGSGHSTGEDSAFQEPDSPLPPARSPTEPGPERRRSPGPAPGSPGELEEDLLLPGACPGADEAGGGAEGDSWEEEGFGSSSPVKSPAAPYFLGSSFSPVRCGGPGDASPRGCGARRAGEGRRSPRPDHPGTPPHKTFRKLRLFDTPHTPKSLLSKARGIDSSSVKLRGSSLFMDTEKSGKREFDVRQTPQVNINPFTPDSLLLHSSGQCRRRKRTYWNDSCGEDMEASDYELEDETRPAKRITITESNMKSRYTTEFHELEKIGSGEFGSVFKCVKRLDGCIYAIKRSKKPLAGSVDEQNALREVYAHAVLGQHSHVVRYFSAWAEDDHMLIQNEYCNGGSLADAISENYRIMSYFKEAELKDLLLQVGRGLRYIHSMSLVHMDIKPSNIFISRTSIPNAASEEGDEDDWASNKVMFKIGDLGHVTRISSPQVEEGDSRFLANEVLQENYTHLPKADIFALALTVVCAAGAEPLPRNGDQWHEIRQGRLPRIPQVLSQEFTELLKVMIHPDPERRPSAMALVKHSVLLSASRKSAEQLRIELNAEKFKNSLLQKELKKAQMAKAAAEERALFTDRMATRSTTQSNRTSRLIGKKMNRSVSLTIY

SMILES	kinase still bound, per cent of control (AAK1 (human)) [%]	kinase still bound, per cent of control (ACVRL1 (human)) [%]	kinase still bound, per cent of control (AURKC (human)) [%]	kinase still bound, per cent of control (CAMK2A (human)) [%]	kinase still bound, per cent of control (CAMK2D (human)) [%]	kinase still bound, per cent of control (CDC42BPA (human)) [%]	kinase still bound, per cent of control (CDK18 (human)) [%]	kinase still bound, per cent of control (CDK8 (human)) [%]	kinase still bound, per cent of control (DDR2 (human)) [%]	kinase still bound, per cent of control (DYRK1B (human)) [%]	kinase still bound, per cent of control (EPHB1 (human)) [%]	kinase still bound, per cent of control [1] [%]	kinase still bound, per cent of control (FRK (human)) [%]	kinase still bound, per cent of control (FYN (human)) [%]	kinase still bound, per cent of control (GSK3B (human)) [%]	kinase still bound, per cent of control (IKBKB (human)) [%]	kinase still bound, per cent of control (MAP2K4 (human)) [%]	kinase still bound, per cent of control (MAP4K1 (human)) [%]	kinase still bound, per cent of control (MAP4K3 (human)) [%]	kinase still bound, per cent of control (MAPK13 (human)) [%]	also measured
Cc1ccc(C(=O)Nc2cccc(C(F)(F)F)c2)cc1Nc1cncc(C(N)=O)c1	100	100	100	100	100	100	100	100	0	100	1.8	100	1.3	100	100	100	100	100	100	100	kinase still bound, per cent of control (MAPK14 (human)): 5%; kinase still bound, per cent of control (MAPK3 (human)): 100%; kinase still bound, per cent of control (MARK1 (human)): 100%; kinase still bound, per cent of control (MARK4 (human)): 100%; kinase still bound, per cent of control (MKNK1 (human)): 100%; kinase still bound, per cent of control (NEK2 (human)): 100%; kinase still bound, per cent of control (NTRK2 (human)): 32%; kinase still bound, per cent of control (PAK4 (human)): 100%; kinase still bound, per cent of control (PIM2 (human)): 100%; kinase still bound, per cent of control (RAF1 (human)): 4.5%; kinase still bound, per cent of control (RPS6KA4 KD2 (human)): 100%; kinase still bound, per cent of control (RPS6KA5 KD1 (human)): 100%; kinase still bound, per cent of control (SIK1 (human)): 100%; kinase still bound, per cent of control (STK11 (human)): 100%; kinase still bound, per cent of control (STK32C (human)): 100%; kinase still bound, per cent of control (STK36 (human)): 100%; kinase still bound, per cent of control (SYK (human)): 100%; kinase still bound, per cent of control (TLK1 (human)): 100%; kinase still bound, per cent of control (TTK (human)): 100%; kinase still bound, per cent of control (WEE1 (human)): 100%
CCN1CCN(Cc2ccc(Nc3ncc4c(n3)N(C)c3ccccc3C(=O)N4C)cc2C(F)(F)F)CC1	36	100	8.7	53	69	70	97	94	50	68	100	19	19	20	47	100	100	18	11	100	kinase still bound, per cent of control (MAPK14 (human)): 100%; kinase still bound, per cent of control (MAPK3 (human)): 99%; kinase still bound, per cent of control (MARK1 (human)): 21%; kinase still bound, per cent of control (MARK4 (human)): 19%; kinase still bound, per cent of control (MKNK1 (human)): 100%; kinase still bound, per cent of control (NEK2 (human)): 100%; kinase still bound, per cent of control (NTRK2 (human)): 60%; kinase still bound, per cent of control (PAK4 (human)): 80%; kinase still bound, per cent of control (PIM2 (human)): 30%; kinase still bound, per cent of control (RAF1 (human)): 100%; kinase still bound, per cent of control (RPS6KA4 KD2 (human)): 100%; kinase still bound, per cent of control (RPS6KA5 KD1 (human)): 100%; kinase still bound, per cent of control (SIK1 (human)): 27%; kinase still bound, per cent of control (STK11 (human)): 89%; kinase still bound, per cent of control (STK32C (human)): 100%; kinase still bound, per cent of control (STK36 (human)): 82%; kinase still bound, per cent of control (SYK (human)): 78%; kinase still bound, per cent of control (TLK1 (human)): 74%; kinase still bound, per cent of control (TTK (human)): 77%; kinase still bound, per cent of control (WEE1 (human)): 91%
